Test results published in publication PMC3038857, “Using Nuclear Receptor Activity to Stratify Hepatocarcinogens” (PLoS ONE, 2011).
Where two headings read alike, the source gives them in different places.

What was measured:
Rat Liver [1] = conditions: chronic study, ref ToxRefDB, cited from earlier work
CYP2B6 = assay: CLZD_CYP2B6: Change in expression of CYP2B6 (primary human hepatocytes); type: cell-based; conditions: 24 hr
Outline: (§1)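 Primary human hepatocytes exposed to 5 concentrations (0.004-40 µM) for 6, 24 or 48 hr; transcript levels measured by multiplexed quantitative nuclease protection assay. Markers of nuclear receptor pathways: CYP1A1 (AhR), CYP2B6 and ABCB1 (CAR), CYP3A4 (PXR).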

Mouse Liver [2] = conditions: chronic study, ref ToxRefDB, cited from earlier work
Rat Liver [3] = conditions: chronic study, ref ToxRefDB, cited from earlier work; remark: listed apart in the source
Rat Liver [4] = conditions: chronic study, ref ToxRefDB, cited from earlier work; remark: listed apart in the source
ABCB1 = assay: CLZD_ABCB1: Change in expression of ABCB1 (primary human hepatocytes); type: cell-based; conditions: 24 hr
Experimental: This is a collection of multiplexed gene expression assays focused on Phase I and II xenobiotic metabolizing enzymes and transporters. Human primary cell cultures were treated with chemicals at 5 concentrations (0.004-40 [drawing 42] M) for 6, 24 and 48 hr. Concentration- and time-response profiles of chemicals were measured by the expression of key nuclear receptor target genes, activities of CYP1A enzymes (EROD), and cell morphology. Fourteen gene targets were monitored by quantitative nuclease protection assay including: six representative cytochrome P-450 genes, four hepatic transporters, three Phase II conjugating enzymes, and one endogenous metabolism gene involved in cholesterol synthesis. The target genes associated with nuclear receptor pathways are as follows: [drawing 43] and [drawing 44] with [drawing 45]; [drawing 46] , [drawing 47] , [drawing 48] , [drawing 49] , [drawing 50] and [drawing 51] with [drawing 52]; [drawing 53] , [drawing 54] , [drawing 55] and [drawing 56] with [drawing 57]; [drawing 58] with [drawing 59]; and [drawing 60] with [drawing 61] . Assays were run in primary human hepatocyte cultures by CellzDirect Invitrogen Inc. (Durham, NC), in collaboration with EPA.
Multiplexed Gene Expression in Human Primary Hepatocytes: This is a collection of multiplexed gene expression assays focused on Phase I and II metabolic enzymes and transporters. […] Fourteen gene targets were monitored by quantitative nuclease protection assay: six representative cytochrome P450 genes, four hepatic transporters, three Phase II conjugating enzymes, and one endogenous metabolism gene involved in cholesterol synthesis. Cells were exposed at 5 concentrations (0.004-40 µM) for 6, 24 or 48 hr. Gene targets are sentinels for five nuclear receptor signaling pathways: AhR, CAR, PXR, FXR, and PPARα. All gene are associated with nuclear receptor pathways: CYP1A1 and CYP1A2 with AHR; ABCB1, ABCG2, CYP2B6, CYP2C9, CYP2C19 and UGT1A1 with CAR; CYP3A4, GSTA2, SLCO1B1 and SULT2A1 with PXR; HMGCS2 with PPARA; and ABCB11 with FXR. […] Detailed description of the methods, data and analysis methods for this dataset will be presented in a separate publication.

PXR (NR1I2) [5] = target: T1, PXR (NR1I2) (Homo sapiens, UniProt O75469); assay: ATG_PXRE_CIS: Factorial reporter gene assay (HepG2); type: cell-based; set-up: endogenous in cells; host or cells: HepG2
T1 sequence (O75469 1-434): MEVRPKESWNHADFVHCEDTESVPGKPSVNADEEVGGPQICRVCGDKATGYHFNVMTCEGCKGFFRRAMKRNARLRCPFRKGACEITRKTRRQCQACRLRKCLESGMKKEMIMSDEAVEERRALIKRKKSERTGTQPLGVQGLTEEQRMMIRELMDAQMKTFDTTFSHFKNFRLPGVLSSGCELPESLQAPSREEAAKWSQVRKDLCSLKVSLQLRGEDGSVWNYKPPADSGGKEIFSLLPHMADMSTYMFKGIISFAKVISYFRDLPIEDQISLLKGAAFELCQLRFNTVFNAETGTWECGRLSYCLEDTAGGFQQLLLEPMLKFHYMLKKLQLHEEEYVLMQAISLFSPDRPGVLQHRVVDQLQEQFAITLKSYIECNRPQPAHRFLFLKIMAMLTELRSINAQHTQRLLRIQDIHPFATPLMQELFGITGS
Outline: (§2)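 Compounds at seven concentrations (top at MTC, threefold serial) were applied to transfected HepG2 hepatoma cells, with PXRE scored by cis-element reporters and ERRg, FXR and PPARg scored by trans one-hybrid nuclear receptor reporters.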

CYP1A1 = assay: CLZD_CYP1A1: Change in expression of CYP1A1 (primary human hepatocytes); type: cell-based; conditions: 24 hr
Outline: as §1

CYP3A4 = assay: CLZD_CYP3A4: Change in expression of CYP3A4 (primary human hepatocytes); type: cell-based; conditions: 24 hr
Outline: as §1

Mouse Liver [6] = conditions: chronic study, mouse liver; ref ToxRefDB; cited from earlier work
Mouse Liver [7] = conditions: chronic study, mouse liver; ref ToxRefDB; cited from earlier work; remark: listed apart in the source
PXR Human (NR1I2) = target: T2, PXR Human (NR1I2) (Homo sapiens, UniProt O75469); assay: NCGC_PXR_Agonist_human: GAL4 BLAM Reporter gene assay: PXR Human; type: cell-based; conditions: agonist mode
T2 sequence (O75469 146-434 limits assumed): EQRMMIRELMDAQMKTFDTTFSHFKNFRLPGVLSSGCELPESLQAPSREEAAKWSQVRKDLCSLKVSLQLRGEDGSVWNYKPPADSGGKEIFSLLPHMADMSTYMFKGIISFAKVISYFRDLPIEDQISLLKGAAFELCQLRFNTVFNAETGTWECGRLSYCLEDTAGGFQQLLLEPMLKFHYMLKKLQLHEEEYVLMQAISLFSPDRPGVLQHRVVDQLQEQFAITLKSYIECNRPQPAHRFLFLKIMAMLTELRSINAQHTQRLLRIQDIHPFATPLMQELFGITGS
Outline: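 Cell-based GAL4 beta-lactamase reporter assays run at NIH Chemical Genomics Center as part of Tox21. Curve fits required R^2 ≥0.5; values where only the highest concentration exceeded 50% activity were excluded.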

PXR (NR1I2) [8] = target: T1, PXR (NR1I2); assay: ATG_PXR_TRANS: Factorial reporter gene assay (HepG2); type: cell-based; set-up: endogenous in cells; host or cells: HepG2; conditions: HepG2 reporter
Outline: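 HepG2 cells transfected with multiplexed reporter libraries: cis-acting binding-site reporters (CIS) and a one-hybrid nuclear-receptor trans system (TRANS). Chemicals tested at seven concentrations, starting at the maximum tolerated concentration with three-fold serial dilutions.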

PXR (NR1I2) [9] = target: T1, PXR (NR1I2); assay: NVS_NR_hPXR: Human PXR Fluormone PXR (SXR) green (cell-free HTS); type: binding
Outline: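 Responses were normalized to same-plate solvent controls as percent of neutral control. AC50 values came from Hill-equation fits of concentration-response curves.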

LXRb (NR1H2) = target: T3, LXRb (NR1H2) (Homo sapiens, UniProt P55055); assay: ATG_LXRb_TRANS: Factorial reporter gene assay (HepG2); type: cell-based; conditions: HepG2 reporter
T3 construct: expressed in transfected cells; host or cells: HepG2
T3 sequence (P55055 1-460): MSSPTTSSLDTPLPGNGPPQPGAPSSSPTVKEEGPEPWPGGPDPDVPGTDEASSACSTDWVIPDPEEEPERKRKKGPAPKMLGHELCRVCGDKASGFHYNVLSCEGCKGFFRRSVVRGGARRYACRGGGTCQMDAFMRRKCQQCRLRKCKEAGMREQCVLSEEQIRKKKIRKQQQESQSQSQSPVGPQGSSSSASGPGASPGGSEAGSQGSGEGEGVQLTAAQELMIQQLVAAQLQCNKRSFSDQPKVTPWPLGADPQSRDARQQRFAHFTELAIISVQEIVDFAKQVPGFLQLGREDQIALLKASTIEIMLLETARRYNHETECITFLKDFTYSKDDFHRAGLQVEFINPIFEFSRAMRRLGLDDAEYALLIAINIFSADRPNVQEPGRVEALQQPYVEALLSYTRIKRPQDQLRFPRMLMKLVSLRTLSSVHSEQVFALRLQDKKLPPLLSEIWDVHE
Experimental: A multiple reporter transcription unit (MRTU) library consisting of 48 transcription factor binding sites was transfected into the HepG2 human liver hepatoma cell line. In addition to the cis-acting reporter genes (CIS), a modification of the approach was used to generate a trans-system (TRANS) with a mammalian one-hybrid assay consisting of an additional 25 MRTU library reporting the activity of nuclear receptor super-family members. […] These assays were performed by Attagene Inc. (Morrisville NC) under contract to EPA.
In addition to the cis-acting reporter genes (CIS), a modification of the approach was used to generate a trans-system (TRANS) with a mammalian one-hybrid assay consisting of an additional 25 MRTU library reporting the activity of nuclear receptor super-family members. […] Chemicals were then tested in the CIS and TRANS assays at seven concentrations starting at the MTC and followed by three-fold serial dilutions. These assays were performed by Attagene Inc. (Morrisville NC) under contract to EPA. Detailed description of the methods, data and analysis methods for this dataset will be presented in a separate publication.

CYP1A2 = assay: CLZD_CYP1A2: Change in expression of CYP1A2 (primary human hepatocytes); type: cell-based; conditions: 24 hr
Outline: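 Chemicals are tested in human hepatocyte primary cultures over 0.004-40 µM (5 concentrations) for 6, 24 or 48 hr, and concentration- and time-dependent transcript changes are read by quantitative nuclease protection assay.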

[10] = target: T4, PPARG (peroxisome proliferator-activated receptor gamma) (Homo sapiens, UniProt P37231); assay: ATG_PPARg_TRANS: Factorial reporter gene assay (HepG2); type: cell-based; conditions: HepG2 reporter
T4 construct: expressed in transfected cells; host or cells: HepG2
T4 sequence (P37231 1-505): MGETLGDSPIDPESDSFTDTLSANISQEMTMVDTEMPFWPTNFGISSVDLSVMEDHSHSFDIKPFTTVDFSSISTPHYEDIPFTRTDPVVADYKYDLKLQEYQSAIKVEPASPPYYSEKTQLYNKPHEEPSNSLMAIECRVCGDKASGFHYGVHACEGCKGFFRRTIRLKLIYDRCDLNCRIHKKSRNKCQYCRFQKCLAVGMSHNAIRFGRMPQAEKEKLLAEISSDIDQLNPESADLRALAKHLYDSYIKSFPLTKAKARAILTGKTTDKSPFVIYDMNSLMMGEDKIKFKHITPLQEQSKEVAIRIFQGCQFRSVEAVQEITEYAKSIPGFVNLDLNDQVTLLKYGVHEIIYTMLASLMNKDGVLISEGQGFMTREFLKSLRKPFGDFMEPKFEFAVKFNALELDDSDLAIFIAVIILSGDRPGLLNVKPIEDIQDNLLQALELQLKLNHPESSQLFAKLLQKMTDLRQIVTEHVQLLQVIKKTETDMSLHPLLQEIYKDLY
Outline: as §2

| Compound | CLZD_CYP2B6_24 (CYP2B6) | CLZD_ABCB1_24 (ABCB1) | CLZD_CYP1A1_24 (CYP1A1) | CHR_Rat_Liver_3_NeoplasticLesion (Rat Liver [1]; rat liver) | CHR_Mouse_Liver_3_NeoplasticLesion (Mouse Liver [6]) | CHR_Mouse_Liver_1_AnyLesion (Mouse Liver [2]; mouse liver) | CHR_Rat_Liver_1_AnyLesion (Rat Liver [3]; rat liver) | CHR_Mouse_Liver_2_PreneoplasticLesion (Mouse Liver [7]) | CHR_Rat_Liver_2_PreneoplasticLesion (Rat Liver [4]; rat liver) | ATG_LXRb_TRANS (LXRb (NR1H2)) | also measured |
| --- | --- | --- | --- | --- | --- | --- | --- | --- | --- | --- | --- |
| CC(C)(C)[C@H](O)[C@H](Cc1ccc(Cl)cc1)n1cncn1 [r235] | 5.403 | 5.316 | 5.242 | – | – | – | – | – | – | – | CHR_Rat_Liver_3_NeoplasticLesion (Rat Liver [1]; rat): 0; CHR_Mouse_Liver_1_AnyLesion (Mouse Liver [2]; mouse): 6; CHR_Rat_Liver_1_AnyLesion (Rat Liver [3]; rat): 6; CHR_Rat_Liver_2_PreneoplasticLesion (Rat Liver [4]; rat): 0; ATG_PXRE_CIS (PXR (NR1I2) [5]; HepG2): 4.824 |
| C#CC(C)(C)NC(=O)c1cc(Cl)cc(Cl)c1 [r265] | 5.253 | 5.227 | – | 0 | 6 | 6 | 6 | 6 | 0 | – | CLZD_CYP3A4_24 (CYP3A4): 4.621; NCGC_PXR_Agonist_human (PXR Human (NR1I2)): 4.619; ATG_PXR_TRANS (PXR (NR1I2) [8]): 4.409; ATG_PXRE_CIS (PXR (NR1I2) [5]; HepG2 reporter): 4.824; NVS_NR_hPXR (PXR (NR1I2) [9]): 4.411 |
| Cc1cc(C)nc(Nc2ccccc2)n1 [r273] | 5.27 | – | 4.775 | 0 | – | – | 6 | – | 6 | 4.237 | CLZD_CYP1A2_24 (CYP1A2): 4.839; ATG_PPARg_TRANS [10]: 4.137 |
| CC/C(=N\OC/C=C/Cl)C1=C(O)CC(C2CCOCC2)CC1=O (stereo not drawn) [r295] | – | – | – | 6 | 6 | 6 | 6 | 6 | 6 | 4.194 | – |
| Cc1[nH]c(=O)n(C(C)(C)C)c(=O)c1Cl [r296] | 5.239 | – | 5.327 | – | 6 | 6 | – | 6 | – | 4.119 | – |
